Tests used:
Type in all cases: in vivo, male Sprague-Dawley rats
MCT modeling rats [1] = test: Fulton index (RV/(LV+S)) measurement in MCT-modeled rats
Protocol: The Fulton index reflects the organ remodeling caused by PAH. […] This is a goal that current pharmaceutical drugs for treating PAH cannot achieve, but one that new drugs for PAH aim to reach.
(§1) Twenty-eight 7-week-old male Sprague-Dawley rats (average weight of 200-250 g) were purchased from Vital River and were raised at the experimental site for 1 week of acclimatization (temperature 20 °C-26 °C, humidity 30%-70%, light-dark cycle ratio 1:1) until they were 8 weeks old.
(§2) Twenty-eight rats were randomized into the following 6 groups, including dosing groups, positive control groups, a negative control group and a healthy control group, and each was marked with ear tags.
(§3) • (1) Preparation of monocrotaline (MCT) solution: An adequate amount of MCT was weighed into a 50 mL solution of 20% ethanol-normal saline. After gentle shaking, the solution was transferred to a 50-mL centrifuge tube, and placed tilted in a thermostatic shaker at 37 °C, 220 rpm for 12-14 hours to fully dissolve until no visible crystalline particles observed. • (2) Injection of MCT solution: The skin on the dorsal cervical region of the rats was gently lifted, MCT solution was subcutaneously injected at a dose of 60 mg/kg using a 1-mL syringe and the day was recorded as Day 0. • (3) Healthy control: The same volume of normal saline was injected in the same manner. […]
(§4) Starting from Day 14, the rats were weighed daily, and the corresponding solutions (test compound or normal saline) were administered intragastrically according to the grouping protocol until Day 27, for a total of 14 days; the intragastric dose was 0.5 mL/100 g, and the body weight and survival data of the rats were recorded. […]
After separating the heart, the non-ventricular parts (such as the atria, blood vessels, and valve rings) were cut off. […] RV/(LV+S) was calculated as the Fulton index. […]
(§5) Rats in Groups 3-6 were actually administered for 14 days, and all were measured and sampled on Day 27. […]

[2] = Body weight of MCT-modeled rats; details: intragastric; for Body weight on Day 0: Day 0 = MCT injection, before dosing; for Body weight on Day 14: Day 14 = start of dosing; for Body weight at sampling: sampled on Day 27
Protocol: as §1, §2
• (1) Preparation of monocrotaline (MCT) solution: An adequate amount of MCT was weighed into a 50 mL solution of 20% ethanol-normal saline. After gentle shaking, the solution was transferred to a 50-mL centrifuge tube, and placed tilted in a thermostatic shaker at 37 °C, 220 rpm for 12-14 hours to fully dissolve until no visible crystalline particles observed. • (2) Injection of MCT solution: The skin on the dorsal cervical region of the rats was gently lifted, MCT solution was subcutaneously injected at a dose of 60 mg/kg using a 1-mL syringe and the day was recorded as Day 0. • (3) Healthy control: The same volume of normal saline was injected in the same manner.
According to the concentration of 0.6 mg/mL and 1.2 mg/mL (3-mg/kg/day and 6-mg/kg/day dose groups), appropriate amounts of the test compound were weighed and dissolved in corresponding volume of pure water by shaking to obtain transparent solution, respectively; • (2) The resulting solutions were stored in a 4 °C refrigerator. Remove and equilibrate to room temperature before use;
Starting from Day 14, the rats were weighed daily, and the corresponding solutions (test compound or normal saline) were administered intragastrically according to the grouping protocol until Day 27, for a total of 14 days; the intragastric dose was 0.5 mL/100 g, and the body weight and survival data of the rats were recorded.
(§6) Note: Due to the limited total amount of Compound 1, rats in Group 1 were actually administered for 13 days, rats in Group 2 were actually administered for 12 days, and all were measured and sampled on Day 27; rats in Groups 3-6 were actually administered for 14 days, and all were measured and sampled on Day 27.

MCT modeling rats [3] = test: Hemodynamic measurement of right ventricular systolic pressure (RVSP) by right cardiac catheterization in MCT-modeled rats
Protocol: as §1, §2, §3, §4, §6, §5

With `CCCCC[C@H](O)CC[C@@H]1[C@H]2Cc3cccc(OCC(=O)O)c3C[C@H]2C[C@H]1O` [Compound C1, Treprostinil sodium 5.5-hydrate] the “Fulton index compared with healthy control group” value (MCT modeling rats [1]; 3 and 6 mg/kg) was “still higher than that of the healthy control group”, the “Fulton index reduction of rat heart” value (MCT modeling rats [1]; 3 and 6 mg/kg) was “can significantly reduce the Fulton index of rat heart” and the “Fulton index, difference between dosing groups” value (MCT modeling rats [1]; 6 vs 3 mg/kg) was “no significant difference in the effects between the two dosing groups”. For the same compound, the “Body weight on Day 0” value ([2]; 3 mg/kg/day group) was 330 + 25.11 g, the “Body weight on Day 14” value ([2]; 3 mg/kg/day group) was 430 + 34.15 g and the “Body weight at sampling” value ([2]; 3 mg/kg/day) was 431 + 58.03 g. For the same compound, the “Body weight on Day 0” value ([2]; 6 mg/kg/day group) was 316 + 4.35 g, the “Body weight on Day 14” value ([2]; 6 mg/kg/day group) was 413 + 15.81 g and the “Body weight at sampling” value ([2]; 6 mg/kg/day) was 436 + 9.65 g. For the same compound, the “RVSP compared with healthy control group” value (MCT modeling rats [3]; 3 and 6 mg/kg) was “still higher than that in the healthy control group”, the “RVSP reduction in rats” value (MCT modeling rats [3]; 3 and 6 mg/kg) was “can significantly reduce RVSP in rats” and the “RVSP, difference between dosing groups” value (MCT modeling rats [3]; 6 vs 3 mg/kg) was “no significant difference in the effects between the two dosing groups”.
